{"source": "patent US9957287B2", "about": "“Methods and compositions to treat type-1 and type-2 diabetes” (CORNELL UNIVERSITY, priority 2016, dated 2018)", "system": "β cells of DKO mice fed a HFD", "test": "MEK162 treatment in vivo of TLR2/TLR4 DKO mice on HFD, histological analysis", "parameters": "species or system mouse", "description": "For S961 studies, 45-week-old mice under a LFD or HFD were anesthetized and subcutaneously implanted with osmotic pumps (ALZET) filled with insulin receptor antagonist S961 4 or vehicle PBS. Mice were infused with S961 at the dose of 10 nmoles/week for 2 weeks, followed by euthanization and histological analysis of islets. For MEK162 studies, TLR2/TLR4 DKO mice on HFD for 8 weeks were orally gavaged with MEK162 (20 mg/kg body weight, LC laboratories) or vehicle, twice daily for 2 days, followed by euthanization and histological analysis.\nFor quantification of β cell area, six independent pancreatic tissue sections from 3-4 mice were randomly selected. Total insulin-positive and total pancreas area was measured using the Aperio Imagescope and ImageJ, from which percentage of insulin-positive area was calculated. For quantitation of β cell proliferation, cytoplasmic insulin and nuclear Ki67 double-positive cells were counted as proliferating β cells. Percent of proliferating cells were calculated by dividing the number of Ki67 and insulin-double positive cells by insulin-positive cells of each islet. Islets from 3-4 mice in each group with ˜200-400 β cells in LFD and ˜2,000-7,300 β cells in HFD cohorts were analyzed using the ImageJ software.\nPancreas was fixed in 4% paraformaldehyde, embedded in paraffin, and sectioned by Cornell Histology Core Facility. Ten-micrometer-thick paraffin sections were stained with hematoxylin/eosin. For staining of insulin with immunofluorescence, paraffinembedded sections were rehydrated by sequentially washing in xylene, 100%, 95%, 75% ethanol and water. Then slides were boiled in […] for antigen exposure. After blocking using 5% donkey serum, primary guinea pig anti-rat insulin antibody (Linco, 1:200) were applied and incubated overnight at 4° C., followed with washes and incubation with FITC-conjugated donkey anti-guinea pig IgG (Jackson ImmunoResearch, 1:200). […] Fluorescence Images were captured under a Zeiss LSM710 confocal microscope at Cornell Biotechnology Resource Center Imaging Facility. […]", "key": {"[1]": {"conditions": "DKO mice on HFD for 8 weeks, MEK162 oral 20 mg/kg twice daily for the last 2 days"}}}
{"smiles": "Cn1cnc2c(F)c(Nc3ccc(Br)cc3F)c(C(=O)NOCCO)cc21", "note": "[MEK162]", "values": [{"measurement": "ERK activation", "setting": "DKO mice fed a HFD, MEK162 oral 20 mg/kg twice daily for 2 days", "result": "blocked"}, {"measurement": "nuclear entry of Cyclin D2", "setting": "[1]", "result": "abolished"}, {"measurement": "β cell proliferation (Ki67-positive β cells)", "setting": "[1]", "result": "abolished"}]}
